Broadly, the pIC50 is −log10 of the IC50, conventionally taken in molar units.

Results on 18 molecules are retold here after patent publication US7625905B2, “Octahydro-pyrrolo[3,4-c]pyrrole CCR5 receptor antagonists” (Roche Palo Alto LLC, priority 2006, dated 2009).

pIC50: −log10 of the molar value.

Test [1] has as its target T1, CCR5 (Homo sapiens, UniProt P51681). Kind of test: Human CCR5 receptor-ligand binding (RANTES) assay. To be noted: 125I RANTES 0.1 nM, CHO-Gα16-hCCR5 cells. On the set-up: expressed in transfected cells. As to the method: The construct was transfected into CHO-Gα16 cells by using Fugene Reagent (Roche).
Adherent cells in […] tissue culture flask (˜90% confluent) were harvested using 1 mM EDTA in PBS (phosphate-buffered saline) without Ca^2+ and Mg^2+. Cells were washed twice with PBS containing no Ca^2+ and Mg^2+.
Eighty μl CHO-Gα16-hCCR5 (1×10^6/ml) cells were added to 96 well plates.
The compound dilutions were made in PBS, 1% BSA. Total reaction volume was 100 μl per well. The test compounds were added to the cells prior to the addition of radioligand.
After incubation, the cells were harvested onto GF/C filter plates using Packard cell harvester. Filters were pretreated with 0.3% PEI/0.2% BSA for 30 min. The filter plate was washed rapidly 5 times with 25 mM HEPES, 500 mM NaCl, 1 mM CaCl2 and 5 mM MgCl2 adjusted to pH 7.1. Plates were dried in oven (70° C.) for 20 min, added with 40 μl scintillation fluid and sealed with Packard TopSeal-A. Packard Top Count was used to measure of the radioactivity for 1 min per well.
Total binding was determined with control wells added with radioisotope and buffer and the non-specific binding was determined using an excess cold RANTES to some of the control wells. Specific binding was determined by subtracting the non-specific form total binding. […] IC50 values were determined using varying concentrations of the test ligand in triplicates and the data was analyzed using GraphPad Prism (GraphPad, San Diego, Calif.).

Test [2] deals with T1, CCR5. The experiment in a line: CCR5-mediated CCF (cell-cell fusion) assay, Hela-R5 / CEM-NKr-CCR5-Luc luciferase readout. The class given is cell-based. Also noted: host or cells: CEM-NKr-CCR5-Luc cells, co-cultured with Hela-R5 cells expressing gp160 and Tat. To be noted: Hela-R5 and CEM-NKr-CCR5-Luc co-culture 24 hrs. The protocol: The capacity for novel compounds of the present invention to bind to the CCR5 receptor and thereby antagonize CCR5 function can be evaluated with assay systems known in the art.
Hela-R5 cells (express gp160 from R5-tropic virus and HIV-1 Tat) were plated in 384 well white culture plates (BD Bioscience, Palo Alto, Calif.) at 7.5×10^3 cells per well in phenol red-free Dulbecco's Modified Eagle Medium (DMEM) supplemented with 10% FBS, 1× Pen-Strep, 300 μg/ml G418, 100 μg/ml hygromycin, and 1 μg/ml Doxycycline (Dox) (BD Bioscience, Palo Alto, Calif.), using Multimek (Beckman, Fullerton, Calif.) and incubated at 37° C. overnight to induce the expression of gp160. Ten μl diluted compounds in medium containing 5% DMSO were added to the cells, followed by the addition of CEM-NKr-CCR5-Luc (obtained from NIH AIDS Research & Reference Reagents Program) that expresses CD4 and CCR5 and carries a HIV-2 long terminal repeat (LTR)-driven luciferase reporter gene at 1.5×10^4 cells/15 μL/well and incubated for 24 hrs. At the end of co-culture, 15 μl of Steady-Glo luciferase substrate was added into each well, and the cultures were sealed and gently shaken for 45 min. The luciferase activity were measured for 10 sec per well as luminescence by using 16-channel TopCount NXT (PerkinElmer, Shelton, Conn.) with 10 min dark adaptation and the readout is count per second (CPS). For the drug interaction experiments, small molecule compounds or antibodies were serially diluted in serum-free and phenol red-free RPMI containing 5% dimethyl sulfoxide (DMSO) (CalBiochem, La Jolla, Calif.) and 1× Pen-Strep. Five μl each of the two diluted compound or mAb to be tested for drug-drug interactions were added to the Hela-R5 cells right before the addition of target cells.

Test [3] concerns collagen induced arthritis. To be noted: collagen-induced arthritis model; cited from earlier work.
Test [4] addresses T1, CCR5. The experiment in a line: Chemotaxis assay with L1.2hCCR5 cells. Also noted: expressed in transfected cells. The test is classed as cell-based. To be noted: Inhibition of RANTES stimulated chemotaxis. The text has this:
A chemotaxis assay is a functional assay which measures the ability of a non-adherent cell line expressing human CCR5 receptor to migrate across a membrane in response to either test compounds or natural attractant ligand(s) (i.e., RANTES, MIP-1β). Generally, chemotaxis assays monitor the directional movement or migration of a suitable cell (such as a leukocyte (e.g., lymphocyte, eosinophil, basophil)) into or through a barrier (e.g., endothelium, a permeable filter membrane), toward, from a first surface of the barrier toward an opposite second surface containing attractant ligands. Membranes or filters provide convenient barriers to monitor the directional movement or migration of a suitable cell into or through a filter, toward increased levels of an attractant. […]
After the incubation period, the cells are scraped off the filter and the plates are spun in a table top centrifuge at 2,000 rpm for 10 min. The filter is then removed and the density of the cells that have migrated to the bottom wells is detected using CyQUANT^R cell proliferation assay kit (Invitrogen) and the Spectra MAX GeminiXS plate reader (Molecular Devices) according to the manufacturers' instructions. Using the fluorescence measurements the percent migration is determined by % migration=[1−(max−obs)/(max−min)]×100. […] This is calculated with Excel Fit.

T1 sequence (P51681 whole entry): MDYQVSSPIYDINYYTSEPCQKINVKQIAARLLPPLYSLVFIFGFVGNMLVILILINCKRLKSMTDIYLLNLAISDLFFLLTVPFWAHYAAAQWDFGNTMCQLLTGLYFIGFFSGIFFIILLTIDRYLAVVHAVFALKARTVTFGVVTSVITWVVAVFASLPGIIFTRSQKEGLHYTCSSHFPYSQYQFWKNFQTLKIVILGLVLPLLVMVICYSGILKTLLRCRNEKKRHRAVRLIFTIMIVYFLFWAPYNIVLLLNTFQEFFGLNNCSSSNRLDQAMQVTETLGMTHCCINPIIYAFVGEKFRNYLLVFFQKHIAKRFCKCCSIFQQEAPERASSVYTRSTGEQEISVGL

With “1-(4-{3-[5-(4,6-Dimethyl-pyrimidine-5-carbonyl)-hexahydro-pyrrolo[3,4-c]pyrrol-2-yl]-1-phenyl-propyl}-piperidin-1-yl)-2-methyl-propan-1-one [V-15]”, the values for the pIC50 at CCR5 [1] and on CCR5 [2] were 8.09 and 6.69, respectively.
Taken in the same sequence, the figures for `Cc1ncnc(C)c1C(=O)N1CC2CN(CCC3(c4ccccc4)CCN(C(=O)OC(C)(C)C)CC3)CC2C1` (stereo not shown) [I-1, tert-Butyl 4-{2-[5-(4,6-dimethyl-pyrimidine-5-carbonyl)-hexahydro-pyrrolo[3,4-c]pyrrol-2-yl]-ethyl}-4-phenyl-piperidine-1-carboxylate] were 6.08 and 6.08.
Taken in the same sequence, the figures for `Cc1ncnc(C)c1C(=O)N1CC2CN(CCC3(c4cccc(F)c4)CCN(C(=O)c4ccccc4)CC3)CC2C1` (stereo not shown) [I-3] were 7.11 and 6.51.
Taken in the same sequence, the figures for `Cc1ncnc(C)c1C(=O)N1CC2CN(CCC3(c4ccccc4)CCN(C(=O)c4ccc(S(N)(=O)=O)cc4)CC3)CC2C1` (stereo not shown) [I-9] were 6.30 and 5.60.
Turning to `Cc1ncnc(C)c1C(=O)N1CC2CN(CCC3(c4ccccc4)CCN(C(=O)c4cccc(S(=O)(=O)N(C)C)c4)CC3)CC2C1` (stereo not shown) [I-14], the negative logarithm of the IC50 (pIC50) on CCR5 [1] is 7.32; at CCR5 [2] it was 5.92.
Taken in the same sequence, the figures for `Cc1ncnc(C)c1C(=O)N1CC2CN(CCC3(c4cccc(F)c4)CCN(C(=O)c4cccc(S(=O)(=O)N(C)C)c4)CC3)CC2C1` (stereo not shown) [I-19] were 7.29 and 6.41.
For the molecule `Cc1ncnc(C)c1C(=O)N1CC2CN(CCC3(c4ccccc4)CN(C(=O)CC4CCCC4)C3)CC2C1` (stereo not shown) [II-6], the pIC50 is 7.56 at CCR5 [1] and 6.87 against CCR5 [2].
As to `Cc1ncnc(C)c1C(=O)N1CC2CN(CCC3(c4ccccc4)CN(C(=O)C4(C(F)(F)F)CC4)C3)CC2C1` (stereo not shown) [II-15], the pIC50 on CCR5 [1] is 7.29; at CCR5 [2] it was 6.31.
For `Cc1ncnc(C)c1C(=O)N1CC2CN(CCC3(c4ccccc4)CN(S(=O)(=O)C(C)C)C3)CC2C1` (stereo not shown) [II-19], on CCR5 [1], the pIC50 is 6.98.
On to `Cc1ncnc(C)c1C(=O)N1CC2CN(CCC3(c4ccccc4)CN(S(=O)(=O)C4CCCC4)C3)CC2C1` (stereo not shown) [II-22, {5-[2-(1-Cyclopentanesulfonyl-3-phenyl-azetidin-3-yl)-ethyl]-hexahydro-pyrrolo[3,4-c]pyrrol-2-yl}-(4,6-dimethyl-pyrimidin-5-yl)-methanone], for which the negative logarithm of the IC50 (pIC50) on CCR5 [1] was 7.57; against CCR5 [2], 6.34.
Taken in the same sequence, the figures for `Cc1cc(=O)oc(C)c1C(=O)N1CC2CN(CCC3(c4ccccc4)CN(C(=O)C4CCC(F)(F)CC4)C3)CC2C1` (stereo not shown) [II-33] were 7.95 and 8.59.
Taken in the same sequence, the figures for `Cc1ncnc(C)c1C(=O)N1CC2CN(CCC3(c4ccccc4)CN(C(=O)C4CCC(F)(F)CC4)C3)CC2C1` (stereo not shown) [II-39] were 7.73 and 8.02.
Taken in the same sequence, the figures for `Cc1cc(C#N)nc(C)c1C(=O)N1CC2CN(CCC3(c4ccccc4)CCN(C(=O)C(C)(C)C)C3)CC2C1` (stereo not shown) [III-8] were 7.16 and 6.44.
On to `Cc1ncnc(C)c1C(=O)N1CC2CN(CCC(c3ccccc3)C3CN(C(=O)C(C)C)C3)CC2C1` (stereo not shown) [IV-10], for which the pIC50 was 6.61 at CCR5 [1] and 6.34 against CCR5 [2].
`Cc1ncnc(C)c1C(=O)N1CC2CN(CCC(c3cccc(F)c3)C3CN(S(=O)(=O)c4cccc(F)c4)C3)CC2C1` (stereo not shown) [IV-14]: the pIC50 at CCR5 [1] is 7.41; against CCR5 [2], 8.38.
`Cc1ccc(-c2ccc3c(c2)C=C(C(=O)Nc2ccc(C[N+](C)(C)C4CCOCC4)cc2)CCC3)cc1.[Cl-]` [TAK-779]: in test [3], the “incidence and severity of arthritis” value is “reduce both the incidence and severity of arthritis”; the “infiltration of inflammatory CCR5+ T-cells into the joint” value is given as “inhibited”.
Take `COC(=O)N1CCC(C(CCN2CC3CN(C(=O)c4c(C)ncnc4C)CC3C2)c2ccccc2)CC1` (stereo not shown) [V-7, 4-{3-[5-(4,6-Dimethyl-pyrimidine-5-carbonyl)-hexahydro-pyrrolo[3,4-c]pyrrol-2-yl]-1-phenyl-propyl}-piperidine-1-carboxylic acid methyl ester]: the pIC50 on CCR5 [1] was 6.99; at CCR5 [2], 6.13.
`Cc1ncnc(C)c1C(=O)N1CC2CN(CCC(c3ccccc3)C3CCN(S(C)(=O)=O)CC3)CC2C1` (stereo not shown) [V-12] had a pIC50 on CCR5 [4] of 6.12.
